Here are results for 38 compounds from patent publication US9212151B2, “Heterocyclic compounds useful for kinase inhibition” (Amitech Therapeutic Solutions, Inc., priority 2010, dated 2015).

The data set in a line: MTT cell viability assay, compounds at 5, 1 and 0.2 μM, 48 hours. It is filed as cell-based. Particulars: human, A549 tumor cells. On the procedure: MTT assay is used to determine cell proliferation, percent of viable cells, and cytotoxicity. MTT (3-[4,5-dimethylthiazol-2-yl]2,5-diphenyltetrazolium bromide) is a yellow dye, which can be absorbed by the living cells and be reduced to purplish blue formazan crystals by succinate tetrazolium reductase in mitochondria. Formazan formation can therefore be used to assess and determine the survival rate of cells.
Tumor cells (A549) were plated at 2500 cells/well of a 96-well plate in complete growth medium (DMEM+10% FBS, antibiotic/antimycotic, fungizone, L-glutamine, sodium pyruvate, and non-essential amino acids). The cells were allowed to grow overnight. After cell proliferation, the cells were washed and re-suspended in fresh culture medium and placed in 96 well plates.
To each of the 96 well plates containing A549 and a control, 5, 1, and 0.2 μM of the exemplary compounds 1-200 were add. The 96 well plates were incubated for 48 hours. Cell viability was measured by adding MTT (Sigma) at 5 mg/ml for 4 h to the cells and then removing the medium and resuspending each well in 50 μl DMSO to solubilize the crystals. The 96-well plates were read on a plate-scanning spectrophotometer (BioTek) at an absorbance of […]. The survival rate of cells was calculated based on the measurement of absorption at the 570 nm wavelength by enzyme immunoassay analyzer.
For orientation: Tetrazolium assays rely on reduction of a dye to a coloured formazan, in cell work by metabolically active cells.

For the compound `CSc1nc(N)cc(Oc2cccc(-c3nnc(Nc4cccc(C(F)(F)F)c4)s3)c2)n1` [Compound 48], the viability at 48 h, 0.2 µM is > 70%; the viability at 48 h, 1 µM was > 70%; the viability at 48 h, 5 µM is > 70%.
For `COc1ccc2c(Oc3cccc(-c4nnc(Nc5cccc(C(F)(F)F)c5)s4)c3)ccnc2c1` [Compound 49], the viability at 48 h, 0.2 µM is > 70%; the viability at 48 h, 1 µM is > 70%; the viability at 48 h, 5 µM lay within 50 to 70%.
On to `Cc1nccc(Oc2ccc(-c3nnc(Nc4cccc(C(F)(F)F)c4)[nH]3)cc2)n1` [Compound 51], for which the viability at 48 h, 0.2 µM is > 70%; the viability at 48 h, 1 µM lay within 50 to 70%; the viability at 48 h, 5 µM was < 50%.
On the same counts, the results for `CCOc1cc(Oc2ccc(-c3nnc(Nc4cccc(C(F)(F)F)c4)[nH]3)cc2)nc(N)n1` [Compound 52] are > 70%, > 70% and > 70%.
For the compound `COCCOc1cc(Oc2ccc(-c3nnc(Nc4cccc(C(F)(F)F)c4)[nH]3)cc2)nc(N)n1` [Compound 53], the viability at 48 h, 0.2 µM was > 70%; the viability at 48 h, 1 µM is > 70%; the viability at 48 h, 5 µM is < 50%.
`Cc1cc(Oc2cccc(-c3nnc(Nc4cccc(C(F)(F)F)c4)[nH]3)c2)nc(N)n1` [Compound 54]: the viability at 48 h, 0.2 µM is > 70%; the viability at 48 h, 1 µM was < 50%; the viability at 48 h, 5 µM is < 50%.
In the case of `Cc1nccc(Oc2cccc(-c3nnc(Nc4cccc(C(F)(F)F)c4)[nH]3)c2)n1` [Compound 55], the viability at 48 h, 0.2 µM lay within 50 to 70%; the viability at 48 h, 1 µM fell in the range of 50 to 70%; the viability at 48 h, 5 µM is < 50%.
On to `CSc1nc(Oc2cccc(-c3nnc(Nc4cccc(C(F)(F)F)c4)[nH]3)c2)c2cc[nH]c2n1` [Compound 56], for which the viability at 48 h, 0.2 µM is > 70%; the viability at 48 h, 1 µM is > 70%; the viability at 48 h, 5 µM was > 70%.
Turning to `CCOc1cc(Oc2cccc(-c3nnc(Nc4cccc(C(F)(F)F)c4)[nH]3)c2)nc(N)n1` [Compound 57], the viability at 48 h, 0.2 µM was > 70%; the viability at 48 h, 1 µM was > 70%; the viability at 48 h, 5 µM was > 70%.
As to `COCCOc1cc(Oc2cccc(-c3nnc(Nc4cccc(C(F)(F)F)c4)[nH]3)c2)nc(N)n1` [Compound 58], the viability at 48 h, 0.2 µM is > 70%; the viability at 48 h, 1 µM is > 70%; the viability at 48 h, 5 µM was > 70%.
Regarding `Nc1cc(Oc2ccc(-c3nnc(Nc4cccc(C(F)(F)F)c4)o3)cc2)ccn1` [Compound 59], the viability at 48 h, 0.2 µM was > 70%; the viability at 48 h, 1 µM is > 70%; the viability at 48 h, 5 µM was > 70%.
Take `FC(F)(F)c1cccc(Nc2nnc(-c3cccc(Oc4ncnc5[nH]ccc45)c3)o2)c1` [Compound 60]: the viability at 48 h, 0.2 µM was > 70%; the viability at 48 h, 1 µM was > 70%; the viability at 48 h, 5 µM was > 70%.
`Nc1cc(Oc2ccc(-c3nnc(Nc4cccc(C(F)(F)F)c4)[nH]3)cc2)nc(NCCO)n1` [Compound 61]: the viability at 48 h, 0.2 µM is > 70%; the viability at 48 h, 1 µM was > 70%; the viability at 48 h, 5 µM is > 70%.
As to `NCCSc1nc(N)cc(Oc2ccc(-c3nnc(Nc4cccc(C(F)(F)F)c4)[nH]3)cc2)n1` [Compound 62], the viability at 48 h, 0.2 µM is > 70%; the viability at 48 h, 1 µM was > 70%; the viability at 48 h, 5 µM is > 70%.
With `C[S+]([O-])c1nc(N)cc(Oc2ccc(-c3nnc(Nc4cccc(C(F)(F)F)c4)[nH]3)cc2)n1` (stereo not drawn) [Compound 63], the viability at 48 h, 0.2 µM is > 70%; the viability at 48 h, 1 µM was > 70%; the viability at 48 h, 5 µM lay within 50 to 70%.
With `CS(=O)(=O)c1nc(N)cc(Oc2ccc(-c3nnc(Nc4cccc(C(F)(F)F)c4)[nH]3)cc2)n1` [Compound 64], the viability at 48 h, 0.2 µM was > 70%; the viability at 48 h, 1 µM is > 70%; the viability at 48 h, 5 µM was > 70%.
For `CSc1nc(N)cc(Oc2ccc(-c3nnc(Nc4cccc(C)c4)[nH]3)cc2)n1` [Compound 65], the viability at 48 h, 0.2 µM is > 70%; the viability at 48 h, 1 µM was > 70%; the viability at 48 h, 5 µM was in the range of 50 to 70%.
With `CSc1nc(N)cc(Oc2ccc(-c3nnc(Nc4ccc(Cl)c(C(F)(F)F)c4)[nH]3)cc2)n1` [Compound 66], the viability at 48 h, 0.2 µM was > 70%; the viability at 48 h, 1 µM was > 70%; the viability at 48 h, 5 µM was < 50%.
`CSc1nc(N)cc(Oc2ccc(-c3nnc(Nc4cc(C)ccc4C)[nH]3)cc2)n1` [Compound 67]: the viability at 48 h, 0.2 µM lay in the range of 50 to 70%; the viability at 48 h, 1 µM was < 50%; the viability at 48 h, 5 µM was < 50%.
As for `FC(F)(F)c1cccc(Nc2nnc(-c3ccc(Oc4ccnc5[nH]ccc45)cc3)[nH]2)c1` [Compound 68], the viability at 48 h, 0.2 µM is > 70%; the viability at 48 h, 1 µM was in the range of 50 to 70%; the viability at 48 h, 5 µM was < 50%.
In the case of `Nc1cc(Oc2ccc(-c3nnc(Nc4cccc(C(F)(F)F)c4)[nH]3)cc2)c2ccccc2n1` [Compound 69], the viability at 48 h, 0.2 µM was > 70%; the viability at 48 h, 1 µM is > 70%; the viability at 48 h, 5 µM was > 70%.
Turning to `COc1ccc2c(Oc3ccc(-c4nnc(Nc5cccc(C(F)(F)F)c5)[nH]4)cc3)ncnc2c1` [Compound 70], the viability at 48 h, 0.2 µM is > 70%; the viability at 48 h, 1 µM was > 70%; the viability at 48 h, 5 µM is < 50%.
Consider `COc1nccc(Oc2ccc(-c3nnc(Nc4cccc(C(F)(F)F)c4)[nH]3)cc2)n1` [Compound 71], for which the viability at 48 h, 0.2 µM was > 70%; the viability at 48 h, 1 µM was > 70%; the viability at 48 h, 5 µM lay within 50 to 70%.
Take `COc1nc(N)cc(Oc2ccc(-c3nnc(Nc4cccc(C(F)(F)F)c4)[nH]3)cc2)n1` [Compound 72]: the viability at 48 h, 0.2 µM is > 70%; the viability at 48 h, 1 µM is > 70%; the viability at 48 h, 5 µM was < 50%.
Turning to `COc1cc(Oc2ccc(-c3nnc(Nc4cccc(C(F)(F)F)c4)[nH]3)cc2)ccn1` [Compound 73], the viability at 48 h, 0.2 µM is > 70%; the viability at 48 h, 1 µM is > 70%; the viability at 48 h, 5 µM was < 50%.
For the compound `Cc1cc(Oc2ccc(-c3nnc(Nc4cccc(C(F)(F)F)c4)[nH]3)cc2)ccn1` [Compound 74], the viability at 48 h, 0.2 µM is > 70%; the viability at 48 h, 1 µM was < 50%; the viability at 48 h, 5 µM was < 50%.
On to `COc1nc(Oc2ccc(-c3nnc(Nc4cccc(C(F)(F)F)c4)[nH]3)cc2)c2cc[nH]c2n1` [Compound 75], for which the viability at 48 h, 0.2 µM was > 70%; the viability at 48 h, 1 µM is > 70%; the viability at 48 h, 5 µM was > 70%.
`COc1cc(Oc2ccc(-c3nnc(Nc4cccc(C(F)(F)F)c4)[nH]3)cc2)ncn1` [Compound 76]: the viability at 48 h, 0.2 µM is > 70%; the viability at 48 h, 1 µM is > 70%; the viability at 48 h, 5 µM was in the range of 50 to 70%.
On to `CCc1cc(Oc2ccc(-c3nnc(Nc4cccc(C(F)(F)F)c4)[nH]3)cc2)nc(N)n1` [Compound 77], for which the viability at 48 h, 0.2 µM is > 70%; the viability at 48 h, 1 µM was in the range of 50 to 70%; the viability at 48 h, 5 µM was 50 to 70%.
For the compound `COCCOc1nc(N)cc(Oc2ccc(-c3nnc(Nc4cccc(C(F)(F)F)c4)[nH]3)cc2)n1` [Compound 78], the viability at 48 h, 0.2 µM was > 70%; the viability at 48 h, 1 µM is > 70%; the viability at 48 h, 5 µM is < 50%.
For `CCOc1nc(N)cc(Oc2ccc(-c3nnc(Nc4cccc(C(F)(F)F)c4)[nH]3)cc2)n1` [Compound 79], the viability at 48 h, 0.2 µM is > 70%; the viability at 48 h, 1 µM is < 50%; the viability at 48 h, 5 µM was < 50%.
Consider `CC(C)(C)Sc1nc(N)cc(Oc2ccc(-c3nnc(Nc4cccc(C(F)(F)F)c4)[nH]3)cc2)n1` [Compound 80], for which the viability at 48 h, 0.2 µM is > 70%; the viability at 48 h, 1 µM lay within 50 to 70%; the viability at 48 h, 5 µM is < 50%.
The like results for `CCc1nc(N)cc(Oc2ccc(-c3nnc(Nc4cccc(C(F)(F)F)c4)[nH]3)cc2)n1` [Compound 81] were, in that order, > 70%, 50 to 70% and < 50%.
Turning to `Cc1nc(N)cc(Oc2ccc(-c3nnc(Nc4cccc(C(F)(F)F)c4)[nH]3)cc2)n1` [Compound 82], the viability at 48 h, 0.2 µM is > 70%; the viability at 48 h, 1 µM was > 70%; the viability at 48 h, 5 µM fell in the range of 50 to 70%.
For `FC(F)(F)c1cccc(Nc2nnc(-c3ccc(Oc4cncnc4)cc3)[nH]2)c1` [Compound 83], the viability at 48 h, 0.2 µM is > 70%; the viability at 48 h, 1 µM was > 70%; the viability at 48 h, 5 µM is > 70%.
As to `Nc1nc(OCC2CC2)cc(Oc2ccc(-c3nnc(Nc4cccc(C(F)(F)F)c4)[nH]3)cc2)n1` [Compound 84], the viability at 48 h, 0.2 µM is > 70%; the viability at 48 h, 1 µM was > 70%; the viability at 48 h, 5 µM is > 70%.
With `FC(F)(F)c1cccc(Nc2nnc(-c3cccc(Oc4ccnc5[nH]ccc45)c3)[nH]2)c1` [Compound 85], the viability at 48 h, 0.2 µM is > 70%; the viability at 48 h, 1 µM was > 70%; the viability at 48 h, 5 µM is 50 to 70%.
For the compound `Nc1cc(Oc2cccc(-c3nnc(Nc4cccc(C(F)(F)F)c4)[nH]3)c2)c2ccccc2n1` [Compound 86], the viability at 48 h, 0.2 µM is > 70%; the viability at 48 h, 1 µM is > 70%; the viability at 48 h, 5 µM was > 70%.

In general, viability refers to the share of living cells, or the viability signal relative to a control. A lower viability goes with more harm to the cells.
